Measured values taken from patent US20060039955A1, “Animal feed compositions with enhanced histidine content” (Cargill, Incorporated, priority 2004, published 2006).

How the values were obtained:
[1] = Poultry digestibility trial (intestinal digestibility of His and Lys sources); assay type: in vivo
Protocol: This trial tested four different sources of AA for their intestinal digestibility. Crystalline His and Lys were coated with partially hydrogenated vegetable oil to test their digestibility as compared to His(HCl) and Lys(HCl), respectively. His(HCl) contains 74.3 wt. % His, whereas, the coated product contains 40 wt. % His. Lys(HCl) contains 78.8 wt. % Lys, whereas, the coated product contains 45 wt. % Lys. For this trial the test articles were added at low levels. The control diet was used as a blank to measure endogenous losses and to calculate the digestibility of His and Lys. The control diet was spiked with His or Lys by using either His(HCl) or Lys(HCl), respectively, (0.50% inclusion rate). This provided His and Lys at 0.372% and 0.394%, respectively. The coated His and Lys products were added to provide the same level of His or Lys as provided by the His(HCl) or Lys(HCl), respectively. The digestibility of His and Lys in the casein was determined and this effect was assessed in calculating the digestibility of the coated His and coated Lys. All test diets contained the same amount of casein (the only other source of His and Lys) as the control diet.

[2] = set-up: species or system cows; details: cow, in vivo
Protocol: Free Amino Acid degradation in vivo was determined using a technique that used cobalt (CoII) as a ruminal flow marker to follow the flow of Maillard-protected histidine (which had been reacted with lactose) out of the rumen. Maillard-protected histidine loss was evaluated relative to CoII outflow in fistulated cows. Free histidine or histidine modified by the Maillard Reaction Protocol were introduced into fistulated cows together with Cobalt II. After introducing the histidine or modified histidine into the cows, samples of rumen fluid periodically were withdrawn and the amount of histidine was determined using an O-phthaldialdehyde assay as described by Roth (1971), Anal. Chem. 43:880. The amount of CoII was determined using inductively coupled plasma emission spectroscopy. The amount of histidine related to CoII was plotted versus time to calculate a degradation coefficient (Kd) for free and protected histidine.

SMILES: Cl.N[C@@H](Cc1c[nH]cn1)C(=O)O [Histidine HCl]
- App. His Dig. ([1]; apparent histidine digestibility, His at 0.372% of diet): 99.3
- True His. Dig. ([1]; true histidine digestibility, His at 0.372% of diet): 100.2

SMILES: Cl.NCCCC[C@H](N)C(=O)O [Lysine HCL]
- App. Lys. Dig. ([1]; apparent lysine digestibility, Lys at 0.394% of diet): 97.3
- True Lys Dig. ([1]; true lysine digestibility, Lys at 0.394% of diet): 99.6

SMILES: N[C@@H](Cc1c[nH]cn1)C(=O)O [free histidine, histidine]
- degradation coefficient (Kd) [2]: 0.000208 to 0.000264 s⁻¹
